Measured values reported in ChEMBL document CHEMBL4350984, “Natural products as multidrug resistance modulators in cancer” (Eur J Med Chem, 2019).

Columns and labels:
Homo sapiens [1] = species: Homo sapiens; assay: Inhibition of BCRP-mediated mitoxantrone efflux in human NCI-H460/MX20 cells assessed as mitoxantrone accumulation at 20 uM after 15 mins by Hoechst 33342 staining based flow cytometry analysis relative to control; format: cell-based; design: scale not given: the % may be the effect or the level left
[2] = Cytotoxicity against human KBv200 cells assessed as reduction in cell viability; format: functional, cell-based
Homo sapiens [3] = species: Homo sapiens; assay: Inhibition of BCRP-mediated mitoxantrone efflux in human NCI-H460/MX20 cells assessed as mitoxantrone accumulation at 10 uM after 15 mins by Hoechst 33342 staining based flow cytometry analysis relative to control; format: cell-based; design: scale not given: the % may be the effect or the level left
cells = settings: Homo sapiens, 72 h
Description: Downregulation of ABCB1 gene expression in human EPG85-257RDB cells after 72 hrs by RT-PCR analysis

Structure (SMILES): COC(=O)c1c(-c2ccc(O)cc2)c(-c2ccc(O)cc2)cn1CC(=O)c1ccc(OC)cc1
- Activity (Homo sapiens [1]): 94.5%

Structure (SMILES): COc1ccc2cc1Oc1ccc(cc1)C[C@H]1c3cc(c(OC)cc3CCN1C)Oc1c(OC)c(OC)cc3c1[C@H](C2)N(C)CC3 [FANCHININ]
- IC50 [2]: 2 µM

Structure (SMILES): COc1ccc2c3c([nH]c2c1)[C@H](C=C(C)C)N1C(=O)[C@@H]2CCCN2C(=O)[C@@H]1C3
- Activity (Homo sapiens [3]): 100%

Structure (SMILES): O=c1c(O)c(-c2ccc(O)c(O)c2)oc2cc(O)cc(O)c12 [QUERCETIN]
- IC50 (cells): 12 µM
